Test results: patent CN116444420A, “β-catenin/BCL9蛋白蛋白相互作用的小分子抑制剂及其应用” (Shanghai Pharmaceutical Industry Research Institute Co ltd, priority 2021, dated 2023)

What was measured:
[1] = target: T1, hERG potassium channel [hERG钾离子通道] (Homo sapiens, UniProt Q12809); assay: hERG potassium channel, whole-cell patch clamp (Example 73); assay type: cell-based; settings: whole-cell patch clamp, HEK293 cells stably transfected, room temperature; read-out: hERG IC50
T1 construct: expressed in transfected cells; host or cells: HEK293 (stably transfected)
T1 sequence (Q12809 whole entry): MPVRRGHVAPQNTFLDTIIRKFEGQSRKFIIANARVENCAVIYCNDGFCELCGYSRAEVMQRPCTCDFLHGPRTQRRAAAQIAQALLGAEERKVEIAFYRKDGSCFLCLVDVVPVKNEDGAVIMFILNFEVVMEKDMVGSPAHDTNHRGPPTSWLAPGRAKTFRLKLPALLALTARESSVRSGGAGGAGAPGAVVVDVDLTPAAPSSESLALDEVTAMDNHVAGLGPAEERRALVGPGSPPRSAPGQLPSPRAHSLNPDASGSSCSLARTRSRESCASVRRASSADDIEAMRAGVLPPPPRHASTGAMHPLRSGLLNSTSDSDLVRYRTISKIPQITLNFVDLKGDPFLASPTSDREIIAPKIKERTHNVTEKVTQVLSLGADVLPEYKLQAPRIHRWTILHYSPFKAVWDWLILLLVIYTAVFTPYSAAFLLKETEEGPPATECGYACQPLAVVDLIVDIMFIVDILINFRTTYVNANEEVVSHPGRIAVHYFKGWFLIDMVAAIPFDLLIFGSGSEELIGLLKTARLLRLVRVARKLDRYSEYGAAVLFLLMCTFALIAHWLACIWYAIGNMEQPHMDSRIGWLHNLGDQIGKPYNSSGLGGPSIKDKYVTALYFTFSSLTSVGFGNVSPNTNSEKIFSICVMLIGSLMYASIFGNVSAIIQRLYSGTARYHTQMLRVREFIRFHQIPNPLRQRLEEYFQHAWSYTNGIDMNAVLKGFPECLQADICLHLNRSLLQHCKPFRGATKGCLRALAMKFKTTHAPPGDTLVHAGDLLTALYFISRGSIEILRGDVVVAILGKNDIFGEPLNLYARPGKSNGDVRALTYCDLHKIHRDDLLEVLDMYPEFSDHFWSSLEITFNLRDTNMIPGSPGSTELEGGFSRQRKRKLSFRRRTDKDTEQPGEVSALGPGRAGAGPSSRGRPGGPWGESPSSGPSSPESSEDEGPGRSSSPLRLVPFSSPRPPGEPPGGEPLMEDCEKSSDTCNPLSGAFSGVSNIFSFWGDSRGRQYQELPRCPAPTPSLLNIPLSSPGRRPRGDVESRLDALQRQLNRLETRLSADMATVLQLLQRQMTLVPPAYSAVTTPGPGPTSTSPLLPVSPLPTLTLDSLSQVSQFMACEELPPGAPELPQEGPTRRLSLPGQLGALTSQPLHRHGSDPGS

[2] = target: T2, β-catenin/BCL9 protein-protein [β-catenin/BCL9蛋白-蛋白] (Homo sapiens, UniProt P35222); assay: β-catenin/BCL9 protein-protein affinity, fluorescence polarisation (Example 71); assay type: binding; settings: better than compound c
T2 construct: β-catenin(1-781)
T2 sequence (P35222 1-781): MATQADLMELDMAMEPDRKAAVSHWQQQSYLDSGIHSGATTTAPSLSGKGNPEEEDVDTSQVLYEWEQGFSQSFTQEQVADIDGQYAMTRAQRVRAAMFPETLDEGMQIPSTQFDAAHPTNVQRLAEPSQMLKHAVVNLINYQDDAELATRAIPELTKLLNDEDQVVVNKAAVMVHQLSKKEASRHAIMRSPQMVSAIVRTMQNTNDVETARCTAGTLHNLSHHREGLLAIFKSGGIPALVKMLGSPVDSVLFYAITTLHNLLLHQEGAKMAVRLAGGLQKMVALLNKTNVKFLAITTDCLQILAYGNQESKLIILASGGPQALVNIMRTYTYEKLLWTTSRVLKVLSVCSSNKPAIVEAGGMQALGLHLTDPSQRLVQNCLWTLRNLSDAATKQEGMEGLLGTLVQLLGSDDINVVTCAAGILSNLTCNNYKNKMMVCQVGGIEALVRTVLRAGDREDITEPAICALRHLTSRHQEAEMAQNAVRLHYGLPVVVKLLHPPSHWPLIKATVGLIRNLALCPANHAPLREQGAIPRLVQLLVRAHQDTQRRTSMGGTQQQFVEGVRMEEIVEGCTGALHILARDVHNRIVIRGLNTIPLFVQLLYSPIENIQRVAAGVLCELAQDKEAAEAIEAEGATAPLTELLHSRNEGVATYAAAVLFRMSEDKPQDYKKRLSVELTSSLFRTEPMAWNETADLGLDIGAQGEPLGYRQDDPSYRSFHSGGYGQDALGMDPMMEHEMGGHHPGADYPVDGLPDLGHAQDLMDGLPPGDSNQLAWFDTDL

[3] = Liver microsome metabolic stability (Example 75); assay type: in vitro ADME; settings: Table 4; 0.5 mg/mL liver microsomal protein, 1μM, NADPH, 37℃

Row | SMILES | IC50 [1] [µM] | affinity activity compared with reference compound c [2] | liver microsome metabolic stability [3]
1 | CC(C)(Oc1cccc(C2CCCN(C(=O)c3cccc(-c4ccc(F)c(F)c4)c3)C2)c1)C(=O)O (centres unmarked) [化合物II-2, 2-(3-(1-(3',4'-二氟-[1,1'-联苯基]-3-羰基)哌啶-3-基)苯氧基)-2-甲基丙酸] | > 10 | – | –
2 | CC(C)(Oc1cccc(C2CCCN(C(=O)c3cccc(-c4ccccc4)c3)C2)c1)C(=O)O (centres unmarked) [化合物II-9, 2-(3-(1-([1,1'-联苯基]-3-羰基)哌啶-3-基)苯氧基)-2-甲基丙酸] | – | 亲和活性更优 | –
3 | CC(C)c1ccc(-c2cccc(S(=O)(=O)N3CCCC(c4cccc(OC(C)(C)C(=O)O)c4)C3)c2)cc1 (centres unmarked) [化合物II-13, 2-(3-(1-((4'-异丙基-[1,1'-联苯基]-3-基)磺酰基)哌啶-3-基)苯氧基)-2-甲基丙酸] | > 10 | 亲和活性更优 | 肝微粒体代谢稳定
4 | CC(C)(Oc1cccc(C2CCCN(S(=O)(=O)c3cccc(-c4ccsc4)c3)C2)c1)C(=O)O (centres unmarked) [化合物II-14, 2-甲基-2-(3-(1-((3-(噻吩-3-基)苯基)磺酰基)哌啶-3-基)苯氧基)丙酸] | > 10 | – | –
5 | CC(C)(Oc1cccc(C2CCCN(S(=O)(=O)c3cccc(C4CCCCC4)c3)C2)c1)C(=O)O (centres unmarked) [化合物II-16, 2-(3-(1-((3-环己基苯基)磺酰基)哌啶-3-基)苯氧基)-2-甲基丙酸] | – | 亲和活性更优 | –
6 | CC(C)(Oc1cccc(C2CCCN(S(=O)(=O)c3cccc(-c4cccs4)c3)C2)c1)C(=O)O (centres unmarked) [化合物II-17, 2-甲基-2-(3-(1-((3-(噻吩-2-基)苯基)磺酰基)哌啶-3-基)苯氧基)丙酸] | – | 亲和活性更优 | –
7 | CC(C)(Oc1cccc(C2CCCN(C(=O)c3cccc(-c4ccc(F)c(F)c4)c3)C2)c1)C(=O)NS(=O)(=O)c1ccccc1 (centres unmarked) [化合物II-29, 2-(3-(1-(3',4'-二氟-[1,1'-联苯基]-3-羰基)哌啶-3-基)苯氧基)-2-甲基-N-(苯磺酰基)丙酰胺] | – | 亲和活性更优 | –
8 | CC(C)c1ccc(-c2cccc(S(=O)(=O)N3CCCC(c4cccc(OC(C)(C)C(=O)NS(=O)(=O)c5ccc(C#N)cc5)c4)C3)c2)cc1 (centres unmarked) [化合物II-37, N-((4-氰基苯基)磺酰基)-2-(3-(1-((4'-异丙基-[1,1'-联苯]-3-基)磺酰)哌啶-3-基(苯氧基)-2-甲基丙酰胺] | – | 亲和活性更优 | –
9 | CC(C)c1ccc(-c2cccc(S(=O)(=O)N3CCCC(c4cccc(OC(C)(C)C(=O)NS(=O)(=O)c5cccc(C(F)(F)F)c5)c4)C3)c2)cc1 (centres unmarked) [化合物II-40, 2-(3-(1-((4'-异丙基-[1,1'-联苯]-3-基)磺酰基)哌啶-3-基(苯氧基)-2-甲基-N-((3-(三氟甲基)苯基)磺酰)丙酰胺] | – | 亲和活性更优 | –
10 | CC(C)c1ccc(-c2cccc(S(=O)(=O)N3CCCC(c4cccc(OC(C)(C)C(=O)NS(=O)(=O)c5ccc([N+](=O)[O-])cc5)c4)C3)c2)cc1 (centres unmarked) [化合物II-42, 2-(3-(1-((4'-异丙基-[1,1'-联苯]-3-基)磺酰基)哌啶-3-基苯氧基)-2-甲基-N-((4-硝基苯基)磺酰)丙酰胺] | – | 亲和活性更优 | –
11 | CC(C)c1ccc(-c2cccc(S(=O)(=O)N3CCCC(c4cccc(OC(C)(C)C(=O)NS(=O)(=O)c5ccc(F)cc5)c4)C3)c2)cc1 (centres unmarked) [化合物II-43, N-((4-氟苯基)磺酰基)-2-(3-(1-((4'-异丙基-[1,1'-联苯]-3-基)磺酰)哌啶-3-基苯氧基)-2-甲基丙酰胺] | – | 亲和活性更优 | –
12 | CC(C)c1ccc(-c2cccc(S(=O)(=O)N3CCCC(c4cccc(OC(C)(C)C(=O)NS(=O)(=O)c5cccc(F)c5)c4)C3)c2)cc1 (centres unmarked) [化合物II-44, N-((3-氟苯基)磺酰基)-2-(3-(1-((4'-异丙基-[1,1'-联苯]-3-基)磺酰)哌啶-3-基苯氧基)-2-甲基丙酰胺] | – | 亲和活性更优 | –
13 | CC(C)c1ccc(-c2cccc(S(=O)(=O)N3CCCC(c4cccc(OC(C)(C)C(=O)NS(=O)(=O)c5cccc([N+](=O)[O-])c5)c4)C3)c2)cc1 (centres unmarked) [化合物II-45, 2-(3-(1-((4'-异丙基-[1,1'-联苯]-3-基)磺酰基)哌啶-3-基苯氧基)-2-甲基-N-((3-硝基苯基)磺酰)丙酰胺] | – | 亲和活性更优 | –
14 | CC(C)c1ccc(-c2cccc(S(=O)(=O)N3CCCC(c4cccc(OC(C)(C)C(=O)NS(=O)(=O)c5cccc(C#N)c5)c4)C3)c2)cc1 (centres unmarked) [化合物II-46, N-((3-氰基苯基)磺酰基)-2-(3-(1-((4'-异丙基-[1,1'-联苯]-3-基)磺酰)哌啶-3-基苯氧基)-2-甲基丙酰胺] | – | 亲和活性更优 | –
15 | CC(C)c1ccc(-c2cccc(S(=O)(=O)N3CCCC(c4cccc(OC(C)(C)C(=O)NS(=O)(=O)c5ccc(OC(F)(F)F)cc5)c4)C3)c2)cc1 (centres unmarked) [化合物II-48, 2-(3-(1-((4'-异丙基-[1,1'-联苯]-3-基)磺酰基)哌啶-3-基苯氧基)-2-甲基-N-((4-(三氟甲氧基)苯基)磺酰)丙酰胺] | – | 亲和活性更优 | –
16 | CC(=O)Nc1ccc(S(=O)(=O)NC(=O)C(C)(C)Oc2cccc(C3CCCN(S(=O)(=O)c4cccc(-c5ccc(C(C)C)cc5)c4)C3)c2)cc1 (centres unmarked) [化合物II-49, N-((4-乙酰氨基苯基)磺酰基)-2-(3-(1-((4'-异丙基-[1,1'-联苯]-3-基)磺酰)哌啶-3-基(苯氧基)-2-甲基丙酰胺] | – | 亲和活性更优 | –
17 | CC(C)c1ccc(-c2cccc(S(=O)(=O)N3CCCC(c4cccc(OC(C)(C)C(=O)NS(=O)(=O)c5ccc6ccccc6c5)c4)C3)c2)cc1 (centres unmarked) [化合物II-50, 2-(3-(1-((4'-异丙基-[1,1'-联苯]-3-基)磺酰基)哌啶-3-基(苯氧基)-2-甲基-N-(萘-2-基磺酰)丙酰胺] | – | 亲和活性更优 | –
18 | COc1cccc(S(=O)(=O)NC(=O)C(C)(C)Oc2cccc(C3CCCN(S(=O)(=O)c4cccc(-c5ccc(C(C)C)cc5)c4)C3)c2)c1 (centres unmarked) [化合物II-51, 2-(3-(1-((4'-异丙基-[1,1'-联苯]-3-基)磺酰基)哌啶-3-基(苯氧基)-N-((3-甲氧基苯基)磺酰)-2-甲基丙酰胺] | – | 亲和活性更优 | –
19 | CC(C)c1ccc(-c2cccc(S(=O)(=O)N3CCCC(c4cccc(OC(C)(C)C(=O)NS(=O)(=O)c5ccc(C(F)(F)F)cc5Cl)c4)C3)c2)cc1 (centres unmarked) [化合物II-52, N-((2-氯-4-(三氟甲基)苯基)磺酰基)-2-(3-(1-((4'-异丙基-[1,1'-联苯]-3-基)磺酰)哌啶-3-基苯氧基)-2-甲基丙酰胺] | – | 亲和活性更优 | –
20 | CC(C)(Oc1cccc(C2CCCN(C(=O)c3cccc(-c4ccc(F)c(F)c4)c3)C2)c1)C(=O)NS(=O)(=O)c1ccc(C(F)(F)F)cc1 (centres unmarked) [化合物II-55, 2-(3-(1-(3',4'-二氟-[1,1'-联苯]-3-羰基)哌啶-3-基)苯氧基)-2-甲基-N-((4-(三氟甲基)苯基)磺酰基)丙酰胺] | – | 亲和活性更优 | –
21 | CC(C)(Oc1cccc(C2CCCN(C(=O)c3cccc(-c4ccc(F)c(F)c4)c3)C2)c1)C(=O)NS(=O)(=O)c1ccc2ccccc2c1 (centres unmarked) [化合物II-56, 2-(3-(1-(3',4'-二氟-[1,1'-联苯]-3-羰基)哌啶-3-基)苯氧基)-2-甲基-N-(萘-2-基磺酰基)丙酰胺] | – | 亲和活性更优 | –
22 | CC(C)(Oc1cccc(C2CCCN(C(=O)c3cccc(-c4ccc(F)c(F)c4)c3)C2)c1)C(=O)N1CCC(=O)CC1 (centres unmarked) [化合物II-57, 1-(2-(3-(1-(3',4'-二氟-[1,1'-联苯]-3-羰基)哌啶-3-基)苯氧基)-2-甲基丙酰基)哌嗪-4-酮] | – | 亲和活性更优 | –
23 | CC(C)(Oc1cccc(C2CCCN(C(=O)c3cccc(-c4ccc(F)c(F)c4)c3)C2)c1)C(=O)N1CCNCC1.Cl (centres unmarked) [化合物II-58, 4-(2-(3-(1-(3',4'-二氟-[1,1'-联苯]-3-羰基)哌啶-3-基)苯氧基)-2-甲基丙酰基)哌嗪-1-氯化铵] | – | 亲和活性更优 | –
24 | CC(C)(Oc1cccc(C2CCCN(C(=O)c3cccc(-c4ccc(F)c(F)c4)c3)C2)c1)C(=O)N1CCC(N)CC1.Cl (centres unmarked) [化合物II-59, 1-(2-(3-(1-(3',4'-二氟-[1,1'-联苯]-3-羰基)哌啶-3-基)苯氧基)-2-甲基丙酰基)哌嗪-4-氯化铵] | – | 亲和活性更优 | –
25 | CC(C)(Oc1cccc(C2CCCN(C(=O)c3cccc(-c4ccc(F)c(F)c4)c3)C2)c1)C(=O)N1CCOCC1 (centres unmarked) [化合物II-60, 2-(3-(1-(3',4'-二氟-[1,1'-联苯]-3-羰基)哌啶-3-基)苯氧基)-2-甲基-1-吗啉丙-1-酮] | – | 亲和活性更优 | –
26 | CC(C)(Oc1cccc(C2CCCN(C(=O)c3cccc(-c4ccc(F)c(F)c4)c3)C2)c1)C(=O)NC1CCNCC1.Cl (centres unmarked) [化合物II-61, 4-(2-(3-(1-(3',4'-二氟-[1,1'-联苯]-3-羰基)哌啶-3-基)苯氧基)-2-甲基丙酰胺)哌啶-1-氯化铵] | – | 亲和活性更优 | –
27 | CC(C)(Oc1cccc(C2CCCN(C(=O)c3cccc(-c4ccc(F)c(F)c4)c3)C2)c1)C(=O)N1CCC(O)CC1 (centres unmarked) [化合物II-63, 2-(3-(1-(3',4'-二氟-[1,1'-联苯]-3-羰基)哌啶-3-基)苯氧基)-1-(4-羟基哌啶-1-基)-2-甲基丙-1-酮] | – | 亲和活性更优 | –
28 | CC(C)(Oc1cccc(C2CCCN(C(=O)c3cccc(-c4ccc(F)c(F)c4)c3)C2)c1)C(=O)N1C[C@H]2C[C@@H]1CN2.Cl (stereo partly drawn) [化合物II-65, (1R,4R)-5-(2-(3-(3-(3',4'-二氟-[1,1'-联苯]-3-羰基)哌啶-3-基)苯氧基)-2-甲基丙酰基)-2,5-二氮杂二环[2.2.1]庚-2-氯化铵] | – | 亲和活性更优 | –
29 | CC(C)(Oc1cccc(C2CCCN(C(=O)c3cccc(-c4ccc(F)c(F)c4)c3)C2)c1)C(=O)N1C[C@@H]2C[C@H]1CN2.Cl (stereo partly drawn) [化合物II-66, (1S,4S)-5-(2-(3-(1-(3',4'-二氟-[1,1'-联苯]-3-羰基)哌啶-3-基)苯氧基)-2-甲基丙酰基)-2,5-二氮杂二环[2.2.1]庚烷-2-氯化铵] | – | 亲和活性更优 | –
30 | COc1ccc(S(=O)(=O)NC(=O)C(C)(C)Oc2cccc(C3CCCN(C(=O)c4cccc(-c5ccc(F)c(F)c5)c4)C3)c2)cc1 (centres unmarked) [化合物II-68, 2-(3-(1-(3',4'-二氟-[1,1'-联苯]-3-羰基)哌啶-3-基)苯氧基)-N-((4-甲氧基苯基)磺酰基)-2-甲基丙酰胺] | – | 亲和活性更优 | –
